Test results from PubChem BioAssay (NCI).
Several values for one entry are separate records, joined by “and”; a condition that tells them apart may be missing. Equal entries are not always repeated.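 96-well plates; 48 h exposure; 5 concentrations. Endpoints by linear interpolation between flanking doses. Not reached: highest tested concentration assigned. Here, GI50 denotes the concentration required for 50% inhibition of growth. The concentration for full growth arrest is given as TGI.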

Legend:
Test in all cases: NCI tumour cell line growth inhibition, 48 h
PC-3 prostate = test system: PC-3 prostate
A549 NSCLC = test system: A549 NSCLC
SK-MEL-28 melanoma = test system: SK-MEL-28 melanoma
NCI-H23 lung = test system: NCI-H23 lung
NCI-H460 lung = test system: NCI-H460 lung
OVCAR-3 ovarian = test system: OVCAR-3 ovarian
RPMI-8226 leukemia = test system: RPMI-8226 leukemia
NCI-H522 lung = test system: NCI-H522 lung
K-562 leukemia = test system: K-562 leukemia
NCI/ADR-RES ovarian = test system: NCI/ADR-RES ovarian
RXF 393 renal = test system: RXF 393 renal
SK-MEL-2 melanoma = test system: SK-MEL-2 melanoma
SK-MEL-5 melanoma = test system: SK-MEL-5 melanoma
EKVX NSCLC = test system: EKVX NSCLC
OVCAR-8 ovarian = test system: OVCAR-8 ovarian
UO-31 renal = test system: UO-31 renal
UACC-257 melanoma = test system: UACC-257 melanoma
HCT-15 colon = test system: HCT-15 colon
T-47D breast = test system: T-47D breast
HS 578T breast = test system: HS 578T breast
CAKI-1 renal = test system: CAKI-1 renal
KM12 colon = test system: KM12 colon
HOP-62 NSCLC = test system: HOP-62 NSCLC
MOLT-4 leukemia = test system: MOLT-4 leukemia
HCT-116 colon = test system: HCT-116 colon
HOP-92 NSCLC = test system: HOP-92 NSCLC
MCF7 breast = test system: MCF7 breast
BT-549 breast = test system: BT-549 breast
HL-60(TB) leukemia = test system: HL-60(TB) leukemia

SMILES: C=CC(=O)N1CCC(Oc2cc3c(Nc4ccc(Cl)c(Cl)c4F)ncnc3cc2OC)CC1
- GI50 (PC-3 prostate): 7.66 µM and 2.95 µM
- TGI (PC-3 prostate): 24.5 µM and > 10 µM
- GI50 (A549 NSCLC): 3.12 µM and 1.6 µM
- TGI (A549 NSCLC): 19.9 µM and > 10 µM
- GI50 (SK-MEL-28 melanoma): 11.6 µM and > 9.46 µM
- TGI (SK-MEL-28 melanoma): 25.8 µM and > 10 µM
- GI50 (NCI-H23 lung): 4.52 µM and 3.18 µM
- TGI (NCI-H23 lung): 21.7 µM and > 10 µM
- GI50 (NCI-H460 lung): 11.1 µM and 5.88 µM
- TGI (NCI-H460 lung): 33.2 µM and > 10 µM
- GI50 (OVCAR-3 ovarian): 2.63 µM and 1 µM
- TGI (OVCAR-3 ovarian): 16.5 µM and > 8.17 µM
- GI50 (RPMI-8226 leukemia): 6.49 µM and 3.93 µM
- TGI (RPMI-8226 leukemia): 42.6 µM and > 10 µM
- GI50 (NCI-H522 lung): < 0.01 µM and 0.00141 µM
- TGI (NCI-H522 lung): 4.19 µM and 0.782 µM
- GI50 (K-562 leukemia): 3.98 µM and 2.68 µM
- TGI (K-562 leukemia): > 100 µM
- GI50 (NCI/ADR-RES ovarian): 1.43 µM and 1.41 µM
- TGI (NCI/ADR-RES ovarian): 10.3 µM and > 9.25 µM
- GI50 (RXF 393 renal): 0.596 µM and 0.81 µM
- TGI (RXF 393 renal): 2.76 µM and 3.87 µM
- GI50 (SK-MEL-2 melanoma): 6.15 µM and 1.95 µM
- TGI (SK-MEL-2 melanoma): 27 µM and 6.41 µM
- GI50 (SK-MEL-5 melanoma): 7.18 µM and 3.47 µM
- TGI (SK-MEL-5 melanoma): 19.3 µM and > 9 µM
- GI50 (EKVX NSCLC): < 0.001 µM
- TGI (EKVX NSCLC): 17.2 µM and > 10 µM
- GI50 (OVCAR-8 ovarian): 4.52 µM and 1.91 µM
- TGI (OVCAR-8 ovarian): 28.6 µM and > 10 µM
- GI50 (UO-31 renal): 0.0493 µM and 0.0566 µM
- TGI (UO-31 renal): 4.75 µM and 3.72 µM
- GI50 (UACC-257 melanoma): 11.5 µM and 6.67 µM
- TGI (UACC-257 melanoma): 31.7 µM and > 10 µM
- GI50 (HCT-15 colon): 2.52 µM and 2.23 µM
- TGI (HCT-15 colon): 15.6 µM and > 10 µM
- GI50 (T-47D breast): < 0.01 µM and 0.0178 µM
- TGI (T-47D breast): 25.9 µM and > 10 µM
- GI50 (HS 578T breast): 3.61 µM and 1.74 µM
- TGI (HS 578T breast): 44.1 µM and 8.16 µM
- TGI (CAKI-1 renal): 12.6 µM and 2.36 µM
- GI50 (KM12 colon): 7.96 µM and 4.12 µM
- TGI (KM12 colon): 27.1 µM and > 10 µM
- GI50 (HOP-62 NSCLC): 3.88 µM and 3.1 µM
- TGI (HOP-62 NSCLC): 25.1 µM and > 10 µM
- GI50 (MOLT-4 leukemia): 3.38 µM and 2.13 µM
- TGI (MOLT-4 leukemia): 17.9 µM and > 8.44 µM
- GI50 (HCT-116 colon): 5.28 µM and 3.72 µM
- TGI (HCT-116 colon): 18.9 µM and > 10 µM
- GI50 (HOP-92 NSCLC): 0.944 µM and 0.338 µM
- TGI (HOP-92 NSCLC): 5.59 µM and 3.07 µM
- GI50 (MCF7 breast): 2.05 µM and 1.42 µM
- TGI (MCF7 breast): 21.7 µM and > 10 µM
- GI50 (BT-549 breast): 1.9 µM and 2.23 µM
- TGI (BT-549 breast): 13.4 µM and > 10 µM
- GI50 (HL-60(TB) leukemia): 8.97 µM and 3.77 µM
- TGI (HL-60(TB) leukemia): 48.5 µM and > 10 µM
